Experimental data taken from US10016382B2, “Method for decreasing skeletal muscle damage and/or oxidative stress in mammals” (LONZA INC., priority 2014, dated 2018).
Values joined by “and” are separate entries in the source; they are usually repeats but may differ in a detail not shown here. Equal entries are not always repeated.

Legend:
[1] = test system: Thiobarbituric acid reactive substances (TBARS); experiment: Serum TBARS (oxidative stress), Example 1; format: in vivo, dog; conditions: for TBARS, serum, Mean / Change in TBARS, post-run minus pre-run: Ex.1, 250 mg/d; for Change in TBARS, post-run minus pre-run: following 15 mile long run at 13 wk, mean ± SEM
Description: Blood Analysis: Serum samples were taken at three different times from each dog during the 90 day period. The blood samples were collected as follows: 1.) just prior to scanning each dog for body composition at the beginning of the study, 2.) prior to the long run on the 13th week, and 3.) following the long run on the 13th week. The serum samples were analyzed for Phosphocreatine Kinase and Canine Myoglobin to determine the amount of muscle protein leakage that occurred following the long run and TBARS and Total Antioxidant Capacity (TAC) were determined to evaluate the antioxidant status of each of the test dogs during the exercise program. The final blood sample was taken 24 hr after the long run to obtain maximum protein leakage based on previous similar types of exercise research with human athletes. Biomarkers and Assay Methods: Blood was drawn from each dog using a serum separator tube at three different times during the 90 day period: 1.) just prior to scanning each dog for body composition at the beginning of the study, 2.) prior to the long run on the 13th week, and 3.) following the long run on the 13th week. The final blood sample was taken 24 hr after the long run to obtain maximum protein leakage based on previous similar types of exercise research with human athletes. Each time after the blood was drawn it was allowed to clot before being centrifuged for 15 min at 2000 g at 4° C. Serum was aliquoted into 1.5 mL microcentrifuge tubes and stored at −80° C. until assays were ran following the end of the study. Creatine kinase (CK) and canine myoglobin were measured to determine the amount of muscle protein leakage that occurred following the long run. Thiobarbituric acid reactive substances (TBARS) and total antioxidant capacity (TAC) were measured to evaluate the antioxidant status of each of the test dogs during the exercise program. Serum samples were analyzed for total antioxidant capacity (TAC) and thiobarbituric acid reactive substances (TBARS) using commercially available colorimetric kits supplied by Cayman Chemical Company (Ann Arbor, Mich.) per manufacturer instructions. Serum canine myoglobin levels were determined using a commercially available ELISA supplied by Innovate Research (Novi, Mich.) per manufacturer instructions. Creatine kinase activity was determined colorimetrically using a commercially available kit supplied by BioVision (San Francisco, Calif.).

Labrador Retrievers = experiment: Subjective recovery score (soreness, lameness) after long runs, Example 1; format: in vivo, dog; conditions: Ex.1, 250 mg/d; observed 24 hr following each long run; either treatment
Excerpt: Each test dog wore an Actical activity monitor from Philips Respironics on a collar for the short higher intensity runs and also wore an Actical activity monitor for the weekly longer endurance runs. The activity data was downloaded into spread sheets along with each dogs identity. Twenty four hours after each long run during the 13 wk running program each of the dogs were scored by kennel staff for soreness or any type of lameness The exercise program was decreased in a tapering program during wk 11 and 12 to allow the dogs to rest for the final long run completed on wk 13. Pre-run serum samples from each test dog was taken 24 hr before the last endurance run. The heart rate and basal body temperature was determined for each test dog prior to the last long endurance run. A subjective recovery score was determined 24 hours after endurance run for each test dog once per week. The subjective recovery score (1-5; score of 1 for no soreness or stiffness in limbs and a score of 5 meant major soreness and stiffness) was based on ease of movement and soreness of each dog. The same subjective system was used 6 hr after the long 15 mile run and again at 24 and 48 hr to evaluate the recovery of the dogs as far as soreness and desire to move.

C[N+](C)(C)C[C@H](O)CC(=O)[O-] [L-carnitine]
TBARS Least Sq Mean ([1]; Baseline): 12.53 μM MDA | TBARS Least Sq Mean ([1]; Baseline, F): 14.1 μM MDA | TBARS Least Sq Mean ([1]; Baseline, M): 10.96 μM MDA | TBARS, serum, Mean ([1]; Baseline, both sexes): 12.37 uM MDA | TBARS, serum, Mean ([1]; Baseline, females): 14.10 uM MDA | TBARS, serum, Mean ([1]; Baseline, males): 10.96 uM MDA | TBARS, serum, Mean ([1]; Post-run, both sexes): 12.59 uM MDA | TBARS, serum, Mean ([1]; Post-run, females): 14.47 uM MDA | TBARS, serum, Mean ([1]; Post-run, males): 11.06 uM MDA | TBARS, serum, Mean ([1]; Pre-run, both sexes): 12.18 uM MDA | TBARS, serum, Mean ([1]; Pre-run, females): 15.13 uM MDA | TBARS, serum, Mean ([1]; Pre-run, males): 9.77 uM MDA | Change in TBARS, post-run minus pre-run ([1]; both sexes): 0.41 μM MDA and 0.41 ± 0.71 n = 20 μM MDA | Change in TBARS, post-run minus pre-run ([1]; females): −0.7 ± 1.1 n = 9 μM MDA | Change in TBARS, post-run minus pre-run ([1]; males): 1.3 ± 0.9 n = 11 μM MDA | TBARS Least Sq Mean ([1]; Post-run): 12.76 μM MDA | TBARS Least Sq Mean ([1]; Post-run, F): 14.47 μM MDA | TBARS Least Sq Mean ([1]; Post-run, M): 11.06 μM MDA | TBARS Least Sq Mean ([1]; Pre-run): 12.45 μM MDA | TBARS Least Sq Mean ([1]; Pre-run, F): 15.13 μM MDA | TBARS Least Sq Mean ([1]; Pre-run, M): 9.77 μM MDA | TBARS Least Sq Mean ([1]; Treatment * Sex, F): 14.1 μM MDA | TBARS Least Sq Mean ([1]; Treatment * Sex, M): 10.96 μM MDA | TBARS Least Sq Mean ([1]; Treatment level, all dogs): 12.53 μM MDA | TBARS, mixed model Estimate, term Time[Post-run-Pre-run] * Treatment[L-carnitine] ([1]; serum, model term): −0.943 | TBARS, mixed model Estimate, term Time[Post-run-Pre-run] * Treatment[L-carnitine] * Sex[F] ([1]; serum, model term): −0.763 | TBARS, mixed model Estimate, term Time[Pre-run-Baseline] * Treatment[L-carnitine] ([1]; serum, model term): 0.8244 | TBARS, mixed model Estimate, term Time[Pre-run-Baseline] * Treatment[L-carnitine] * Sex[F] ([1]; serum, model term): 0.2021 | TBARS, mixed model Estimate, term Treatment[L-carnitine] ([1]; serum, model term): −0.5222 | TBARS, mixed model Estimate, term Treatment[L-carnitine] * Sex[F] ([1]; serum, model term): 0.4031 | Lameness or soreness after long runs (score 1-5) (Labrador Retrievers): no noticeable effects
